# Measured values reported in ChEMBL document CHEMBL4616724, “Topoisomerase Inhibitors Addressing Fluoroquinolone Resistance in Gram-Negative Bacteria” (J Med Chem, 2020).
# Experiments:
# Pseudomonas aeruginosa [1] = test: Antibacterial activity against wild type Pseudomonas aeruginosa PAO1 K767 by CLSI-based broth microdilution assay; assay type: functional
# [2] = Solubility of the compound in pH 7 PBS incubated for 24 hrs under gently shaking condition by UPLC/UV/CLND/MS analysis; assay type: physicochemical; settings: PBS, pH 7
# [3] = n-Octanol-PBS buffer partition coefficient, log D of the compound at pH 7.4 after overnight incubation by LC/UV/qTOF analysis; assay type: physicochemical
# DNA gyrase = DNA gyrase (Escherichia coli, UniProt P0AES4+P0AES6); test: Inhibition of recombinant full-length C-terminal His6-tagged Escherichia coli DNA gyrase AB supercoiling activity using relaxed DNA as substrate preincubated for 30 mins followed by substrate addition and measured after 2 hrs in presence of ATP by size exclusion HPLC analysis; assay type: protein-complex assay
# Klebsiella pneumoniae [4] = test: Antibacterial activity against wild type Klebsiella pneumoniae ATCC 43816 by CLSI-based broth microdilution assay; assay type: functional
# Pseudomonas aeruginosa [5] = test: Antibacterial activity against Pseudomonas aeruginosa K1542/K767 harboring MexB/MexXY deletion mutant by CLSI-based broth microdilution assay; assay type: functional
# Pseudomonas aeruginosa [6] = test: Antibacterial activity against Pseudomonas aeruginosa NB52023 harboring gyrA T83I mutant/ParC S87L mutant by CLSI-based broth microdilution assay; assay type: functional
# Escherichia coli [7] = test: Antibacterial activity against Escherichia coli BW25113/JW0451-2 harboring AcrB deletion mutant by CLSI-based broth microdilution assay; assay type: functional
# [8] = Protein binding in CD1 mouse plasma at 10 uM incubated for 4 hrs under shaking condition by LC-MS/MS analysis; assay type: ADME, cell-free; settings: read-out: PPB (converted)
# [9] = Protein binding in Sprague-Dawley rat plasma at 10 uM incubated for 4 hrs under shaking condition by LC-MS/MS analysis; assay type: ADME, cell-free; settings: read-out: PPB (converted)
# [10] = Protein binding in pooled human plasma at 10 uM incubated for 4 hrs under shaking condition by LC-MS/MS analysis; assay type: ADME, cell-free; settings: read-out: PPB (converted)
# [11] = Intrinsic clearance in rat liver microsomes at 1 uM in presence of NADPH and measured up to 30 mins by LC-MS/MS analysis; assay type: ADME, Microsome; settings: read-out: CLH
# [12] = Dissociation constant, pKa of the compound by UV metric method; assay type: physicochemical
# [13] = target: Voltage-gated inwardly rectifying potassium channel KCNH2 (Homo sapiens, UniProt Q12809); test: Inhibition of human ERG expressed in CHOK1 cells measured for 10 mins by QPatch automated patch-clamp assay; assay type: cell-based, CHO-K1
# Voltage-gated inwardly rectifying potassium channel KCNH2, sequence (Q12809 whole entry): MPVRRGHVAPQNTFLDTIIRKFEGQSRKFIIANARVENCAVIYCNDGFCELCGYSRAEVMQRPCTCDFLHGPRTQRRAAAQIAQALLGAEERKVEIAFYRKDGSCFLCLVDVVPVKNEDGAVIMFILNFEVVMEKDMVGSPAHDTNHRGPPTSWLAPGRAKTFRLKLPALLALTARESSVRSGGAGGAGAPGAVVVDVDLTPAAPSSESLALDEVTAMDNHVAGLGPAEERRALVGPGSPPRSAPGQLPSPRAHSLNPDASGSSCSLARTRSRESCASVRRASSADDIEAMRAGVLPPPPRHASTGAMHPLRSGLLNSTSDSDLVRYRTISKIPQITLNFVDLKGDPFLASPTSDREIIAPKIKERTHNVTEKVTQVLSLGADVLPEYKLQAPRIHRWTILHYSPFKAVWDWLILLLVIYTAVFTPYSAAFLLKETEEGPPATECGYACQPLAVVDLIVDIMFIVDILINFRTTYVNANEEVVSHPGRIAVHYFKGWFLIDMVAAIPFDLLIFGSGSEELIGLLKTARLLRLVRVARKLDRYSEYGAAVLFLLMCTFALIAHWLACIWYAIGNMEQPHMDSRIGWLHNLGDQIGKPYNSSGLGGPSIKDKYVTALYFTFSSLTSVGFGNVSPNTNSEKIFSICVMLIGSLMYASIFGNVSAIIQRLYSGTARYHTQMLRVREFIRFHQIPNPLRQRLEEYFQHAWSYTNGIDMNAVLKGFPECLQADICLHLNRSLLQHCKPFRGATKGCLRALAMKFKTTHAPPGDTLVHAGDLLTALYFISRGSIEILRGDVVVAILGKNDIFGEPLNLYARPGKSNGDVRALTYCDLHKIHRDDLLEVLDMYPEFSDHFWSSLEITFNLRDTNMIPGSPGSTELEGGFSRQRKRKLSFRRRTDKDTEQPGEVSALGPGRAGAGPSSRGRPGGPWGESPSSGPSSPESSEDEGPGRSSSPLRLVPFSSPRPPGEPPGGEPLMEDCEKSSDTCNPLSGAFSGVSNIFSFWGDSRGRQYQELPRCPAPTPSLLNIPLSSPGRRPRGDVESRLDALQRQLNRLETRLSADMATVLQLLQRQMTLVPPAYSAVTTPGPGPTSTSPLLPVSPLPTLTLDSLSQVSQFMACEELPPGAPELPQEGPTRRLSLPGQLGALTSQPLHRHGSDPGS
# HepG2 = test: Cytotoxicity against human HepG2 cells assessed as reduction in cell viability after 72 hrs by Cell-titer Glo assay; assay type: cell-based; settings: HepG2, 72 h
# K562 = test: Cytotoxicity against human K562 cells assessed as reduction in cell viability after 72 hrs by Cell-titer Glo assay; assay type: cell-based; settings: K562, 72 h
# MOLT-4 = test: Cytotoxicity against human MOLT4 cells assessed as reduction in cell viability after 72 hrs by Cell-titer Glo assay; assay type: cell-based; settings: MOLT-4, 72 h
# [14] = Photoirradiation factor, ratio of IC50 for BALB/c mouse 3T3 cells under dark condition to IC50 for BALB/c mouse 3T3 cells under 5 J/cm2 sunlight irradiation by neutral red uptake assay; assay type: ADME, cell-based, NIH3T3; settings: BALB/c 3T3 cells, read-out: Ratio IC50
# NIH3T3 = test: Phototoxicity against BALB/c mouse 3T3 cells assessed as reduction in cell viability preincubated for 1 hr followed by 5 J/cm2 UVA sunlight irradiation for 50 mins and subsequent replacement of medium and measured after 24 hrs by neutral red uptake assay; assay type: cell-based; settings: NIH3T3, light or radiation study
# [15] = Dark toxicity in BALB/c mouse 3T3 cells assessed as reduction in cell viability incubated for 1 hr prior to 50 mins incubation under dark condition followed by replacement of medium and measured after 24 hrs by neutral red uptake assay; assay type: cell-based, NIH3T3; settings: BALB/c 3T3 cells
# Escherichia coli [16] = test: Ratio of MIC for antibacterial activity against wild type Escherichia coli ATCC 25922 at pH 5.8 to MIC for antibacterial activity against wild type Escherichia coli ATCC 25922 at pH 7.4; assay type: functional
# [17] = Clearance in rat at 5 mg/kg, iv or 10 mg/kg, po measured up to 24 hrs by LC-MS/MS analysis; assay type: ADME, organism-based; settings: in vivo
# [18] = Volume of distribution at steady state in rat at 5 mg/kg, iv or 10 mg/kg, po measured up to 24 hrs by LC-MS/MS analysis; assay type: ADME, organism-based; settings: in vivo, read-out: Vdss
# [19] = Terminal half life in rat at 5 mg/kg, iv measured up to 24 hrs by LC-MS/MS analysis; assay type: ADME, organism-based; settings: in vivo, read-out: beta t1/2 (converted)
# [20] = Dose normalized AUC in rat at 10 mg/kg, po measured up to 24 hrs by LC-MS/MS analysis; assay type: ADME, organism-based; settings: in vivo
# [21] = Oral bioavailability in rat at 10 mg/kg measured up to 24 hrs by LC-MS/MS analysis; assay type: ADME, organism-based; settings: in vivo
# [22] = Clearance in mouse at 5 mg/kg, iv or po measured up to 24 hrs by LC-MS/MS analysis; assay type: ADME, organism-based; settings: in vivo
# [23] = Dose normalized Cmax in mouse at 5 mg/kg, po measured up to 24 hrs by LC-MS/MS analysis; assay type: ADME, organism-based; settings: in vivo
# [24] = Tmax in mouse at 5 mg/kg, po measured up to 24 hrs by LC-MS/MS analysis; assay type: ADME, organism-based; settings: in vivo
# [25] = Oral bioavailability in mouse at 5 mg/kg measured up to 24 hrs by LC-MS/MS analysis; assay type: ADME, organism-based; settings: in vivo
# Escherichia coli [26] = test: Antibacterial activity against Escherichia coli ATCC 25922 infected in mouse model of neutropenic thigh infection compound administered subcutaneously 2 hrs post infection and measured after 24 hrs by serial dilution method; assay type: functional
# Escherichia coli [27] = test: Bacteriostatic activity against Escherichia coli ATCC 25922 infected in mouse model of neutropenic thigh infection assessed as static dose compound administered subcutaneously 2 hrs post infection and measured after 24 hrs by serial dilution method; assay type: functional
# Citrobacter = test: Antibacterial activity against Citrobacter clinical isolates by CLSI-based broth microdilution assay; assay type: functional
# Enterobacter = test: Antibacterial activity against Enterobacter clinical isolates by CLSI-based broth microdilution assay; assay type: functional
# Morganella morganii = test: Antibacterial activity against Morganella morganii clinical isolates by CLSI-based broth microdilution assay; assay type: functional
# Serratia marcescens = test: Antibacterial activity against Serratia marcescens clinical isolates by CLSI-based broth microdilution assay; assay type: functional
# Escherichia coli [28] = test: Antibacterial activity against Escherichia coli clinical isolates by CLSI-based broth microdilution assay; assay type: functional
# Klebsiella pneumoniae [29] = test: Antibacterial activity against Klebsiella pneumoniae clinical isolates by CLSI-based broth microdilution assay; assay type: functional
structure (smiles),measurement,setting,value
Cc1c(N2CC3CC3(N)C2)c(F)cc2c(CN)c(F)c(=O)n(C3CC3)c12 (stereo not given),MIC,Pseudomonas aeruginosa [1],1 µg/mL
same,solubility at 24 h,[2],1280 µg/mL
same,logD,[3],1.1
same,IC50,DNA gyrase,1.25 µM
same,MIC,Klebsiella pneumoniae [4],0.125 µg/mL
same,MIC,Pseudomonas aeruginosa [5],0.25 µg/mL
same,MIC,Pseudomonas aeruginosa [6],0.5 µg/mL
same,MIC,Escherichia coli [7],≤ 0.03 µg/mL
same,"fraction unbound at 4 h, 10 µM",[8],0.68
same,"fraction unbound at 4 h, 10 µM",[9],0.42
same,"fraction unbound at 4 h, 10 µM",[10],0.65
same,microsomal CLint at 1 µM,[11],117 µL/min/mg
same,pKa,[12],7.6 to 8
same,IC50,[13],114 µM
same,EC50,HepG2,82 µM
same,EC50,K562,40 µM
same,EC50,MOLT-4,29 µM
same,selectivity ratio,[14],621
same,IC50,NIH3T3,1.61 µM
same,IC50 at 110 min,[15],1000 µM
same,Ratio,Escherichia coli [16],512
same,clearance,[17],71 mL/min/kg
same,Vd,[18],24.1 L/kg
same,half-life,[19],8.2 h
same,AUC/dose,[20],0.1 µM·h/mg/kg
same,bioavailability,[21],15%
same,clearance,[22],50 mL/min/kg
same,Cmax/dose,[23],0.1 µM/mg/kg
same,Tmax,[24],0.5 h
same,bioavailability,[25],36%
same,MIC,Escherichia coli [26],0.06 µg/mL
same,Activity,Escherichia coli [27],45.5 mg/kg/day
same,MIC,Citrobacter,0.06 to 32 µg/mL
same,MIC50,Citrobacter,1 µg/mL
same,MIC90,Citrobacter,8 µg/mL
same,MIC,Enterobacter,0.06 to 32 µg/mL
same,MIC50,Enterobacter,1 µg/mL
same,MIC90,Enterobacter,8 µg/mL
same,MIC,Morganella morganii,0.06 to 32 µg/mL
same,MIC50,Morganella morganii,1 µg/mL
same,MIC90,Morganella morganii,8 µg/mL
same,MIC,Serratia marcescens,0.06 to 32 µg/mL
same,MIC50,Serratia marcescens,1 µg/mL
same,MIC90,Serratia marcescens,8 µg/mL
same,MIC,Escherichia coli [28],0.06 to 8 µg/mL
same,MIC50,Escherichia coli [28],1 µg/mL
same,MIC90,Escherichia coli [28],2 µg/mL
same,MIC,Klebsiella pneumoniae [29],0.25 to 32 µg/mL
same,MIC50,Klebsiella pneumoniae [29],4 µg/mL
same,MIC90,Klebsiella pneumoniae [29],16 µg/mL
